US11708348B2, “Protease inhibitors for treatment of coronavirus infections” (The Scripps Research Institute, priority 2021, dated 2023)

Test system: SARS-CoV-2 strain USA-WA1/2020
Assay: microbe, parasite or virus in culture
Format: cell-based
Conditions: Severe acute respiratory syndrome coronavirus 2, HeLa-ACE2, 24 h, HeLa-ACE2 cells, SARS-CoV-2 infection, 24 h; read-out: EC50, uM (Hela)

## CCCCCC(=O)N1CC2(CC2)C[C@H]1C(=O)N[C@@H](C[C@@H]1CCNC1=O)C(=O)COC(F)(F)F [Compound 708, (S)-5-hexanoyl-N-((S)-3-oxo-1-((S)-2-oxopyrrolidin-3-yl)-4-(trifluoromethoxy)butan-2-yl)-5-azaspiro[2.4]heptane-6-carboxamide]
  EC50: 0.05 to 0.2 µM

## CC(=O)N[C@@H](CC(C)C)C(=O)N[C@@H](C[C@@H]1CCNC1=O)C(=O)COC(F)(F)F [Compound 709, (S)-2-acetamido-4-methyl-N-((S)-3-oxo-l-((S)-2-oxopyrrolidin-3-yl)-4-(trifluoromethoxy)butan-2-yl)pentanamide]
  EC50: 0.2 to 0.5 µM

## O=C1NCC[C@H]1C[C@H](NC(=O)[C@@H]1CC2(CC2)CN1C(=O)c1ccc(F)cc1F)C(=O)COC(F)(F)F [Compound 710, (S)-5-(2,4-difluorobenzoyl)-N-((S)-3-oxo-l-((S)-2-oxopyrrolidin-3-yl)-4-(trifluoromethoxy)butan-2-yl)-5-azaspiro[2.4]heptane-6-carboxamide]
  EC50: 0.2 to 0.5 µM

## CC1(CC(=O)N2CC3(CC3)C[C@H]2C(=O)N[C@@H](C[C@@H]2CCNC2=O)C(=O)COC(F)(F)F)CCCC1 [Compound 711, (S)-5-(2-(l-methylcyclopentyl)acetyl)-N-((S)-3-oxo-1-((S)-2-oxopyrrolidin-3-yl)-4-(trifluoromethoxy)butan-2-yl)-5-azaspiro[2.4]heptane-6-carboxamide]
  EC50: < 0.05 µM

## CC(C)C(F)(F)CC(=O)N1CC2(CC2)C[C@H]1C(=O)N[C@@H](C[C@@H]1CCNC1=O)C(=O)COC(F)(F)F [Compound 712, (S)-5-(3,3-difluoro-4-methylpentanoyl)-N-((S)-3-oxo-1-((S)-2-oxopyrrolidin-3-yl)-4-(trifluoromethoxy)butan-2-yl)-5-azaspiro[2.4]heptane-6-carboxamide]
  EC50: < 0.05 µM

## CC(F)(F)C(F)(F)CC(=O)N1CC2(CC2)C[C@H]1C(=O)N[C@@H](C[C@@H]1CCNC1=O)C(=O)COC(F)(F)F [Compound 713, (S)-N-((S)-3-oxo-1-((S)-2-oxopyrrolidin-3-yl)-4-(trifluoromethoxy)butan-2-yl)-5-(3,3,4,4-tetrafluoropentanoyl)-5-azaspiro[2.4]heptane-6-carboxamide]
  EC50: 0.05 to 0.2 µM

## CC(C)C(F)(F)C(=O)N1CC2(CC2)C[C@H]1C(=O)N[C@@H](C[C@@H]1CCNC1=O)C(=O)COC(F)(F)F [Compound 714, (S)-5-(2,2-difluoro-3-methylbutanoyl)-N-((S)-3-oxo-1-((S)-2-oxopyrrolidin-3-yl)-4-(trifluoromethoxy)butan-2-yl)-5-azaspiro[2.4]heptane-6-carboxamide]
  EC50: < 0.05 µM

## CC1(C)[C@@H]2[C@@H](C(=O)N[C@H](C[C@@H]3CCNC3=O)C(=O)COC(F)(F)F)N(C(=O)[C@H](O)c3ccccc3)C[C@@H]21 [Compound 715, (1R,2S,5S)-3-((R)-2-hydroxy-2-phenylacetyl)-6,6-dimethyl-N-((R)-3-oxo-1-((S)-2-oxopyrrolidin-3-yl)-4-(trifluoromethoxy)butan-2-yl)-3-azabicyclo[3.1.0]hexane-2-carboxamide]
  EC50: 0.05 to 0.2 µM

## CC[C@@H](OC(F)(F)F)C(=O)N1CC2(CC2)C[C@H]1C(=O)N[C@@H](C[C@@H]1CCNC1=O)C(=O)COC(F)(F)F [Compound 716, (S)-N-((S)-3-oxo-1-((S)-2-oxopyrrolidin-3-yl)-4-(trifluoromethoxy)butan-2-yl)-5-((R)-2-(trifluoromethoxy)butanoyl)-5-azaspiro[2.4]heptane-6-carboxamide]
  EC50: 0.05 to 0.2 µM

## CC(C)(O)CC(=O)N1CC2(CC2)C[C@H]1C(=O)N[C@@H](C[C@@H]1CCNC1=O)C(=O)COC(F)(F)F [Compound 717, (S)-5-(3-hydroxy-3-methylbutanoyl)-N-((S)-3-oxo-1-((S)-2-oxopyrrolidin-3-yl)-4-(trifluoromethoxy)butan-2-yl)-5-azaspiro[2.4]heptane-6-carboxamide]
  EC50: 0.05 to 0.2 µM

## O=C1NCC[C@H]1C[C@H](NC(=O)[C@@H]1CC2(CC2)CN1C(=O)[C@@H]1C[C@H]1C(F)(F)F)C(=O)COC(F)(F)F [Compound 718, (S)-N-((S)-3-oxo-1-((S)-2-oxopyrrolidin-3-yl)-4-(trifluoromethoxy)butan-2-yl)-5-((1R,2R)-2-(trifluoromethyl)cyclopropane-1-carbonyl)-5-azaspiro[2.4]heptane-6-carboxamide]
  EC50: < 0.05 µM

## CC(C)C[C@H](O)C(=O)N[C@@H](C[C@@H]1CCNC1=O)C(=O)COC(F)(F)F [Compound 719, (S)-2-hydroxy-4-methyl-N-((S)-3-oxo-1-((S)-2-oxopyrrolidin-3-yl)-4-(trifluoromethoxy)butan-2-yl)pentanamide]
  EC50: 0.5 to 1 µM

## O=C1NCC[C@H]1C[C@H](NC(=O)[C@@H]1CC2(CC2)CN1C(=O)C1CCC(F)(F)C1)C(=O)COC(F)(F)F (stereo partly drawn) [Compound 720, (6S)-5-(3,3-difluorocyclopentane-1-carbonyl)-N-((S)-3-oxo-1-((S)-2-oxopyrrolidin-3-yl)-4-(trifluoromethoxy)butan-2-yl)-5-azaspiro[2.4]heptane-6-carboxamide]
  EC50: < 0.05 µM

## O=C1NCC[C@H]1C[C@H](NC(=O)[C@@H]1CC2(CC2)CN1C(=O)C1CC(F)(F)C1)C(=O)COC(F)(F)F [Compound 721, (S)-5-(3,3-difluorocyclobutane-1-carbonyl)-N-((S)-3-oxo-1-((S)-2-oxopyrrolidin-3-yl)-4-(trifluoromethoxy)butan-2-yl)-5-azaspiro[2.4]heptane-6-carboxamide]
  EC50: 0.05 to 0.2 µM

## C[C@@](O)(C(=O)N1CC2(CC2)C[C@H]1C(=O)N[C@@H](C[C@@H]1CCNC1=O)C(=O)COC(F)(F)F)C(F)(F)F [Compound 722, (S)-N-((S)-3-oxo-1-((S)-2-oxopyrrolidin-3-yl)-4-(trifluoromethoxy)butan-2-yl)-5-((R)-3,3,3-trifluoro-2-hydroxy-2-methylpropanoyl)-5-azaspiro[2.4]heptane-6-carboxamide]
  EC50: 0.05 to 0.2 µM

## O=C1NCC[C@H]1C[C@H](NC(=O)[C@@H]1CC2(CC2)CN1C(=O)C1CCCC1)C(=O)COC(F)(F)F [Compound 723, (S)-5-(cyclopentanecarbonyl)-N-((S)-3-oxo-1-((S)-2-oxopyrrolidin-3-yl)-4-(trifluoromethoxy)butan-2-yl)-5-azaspiro[2.4]heptane-6-carboxamide]
  EC50: 0.05 to 0.2 µM

## CC(=O)N1C[C@H](C(F)(F)F)C[C@H]1C(=O)N[C@@H](C[C@@H]1CCNC1=O)C(=O)COC(F)(F)F [Compound 724, (2S,4R)-1-acetyl-N-((S)-3-oxo-1-((S)-2-oxopyrrolidin-3-yl)-4-(trifluoromethoxy)butan-2-yl)-4-(trifluoromethyl)pyrrolidine-2-carboxamide]
  EC50: 0.05 to 0.2 µM

## CC(C)[C@H](O)[C@@H](O)C(=O)N1CC2(CC2)C[C@H]1C(=O)N[C@@H](C[C@@H]1CCNC1=O)C(=O)COC(F)(F)F [Compound 726, (S)-5-((2R,3S)-2,3-dihydroxy-4-methylpentanoyl)-N-((S)-3-oxo-1-((S)-2-oxopyrrolidin-3-yl)-4-(trifluoromethoxy)butan-2-yl)-5-azaspiro[2.4]heptane-6-carboxamide]
  EC50: 0.2 to 0.5 µM

## [2H]C([2H])([2H])C([2H])([2H])C([2H])([2H])C([2H])([2H])C(=O)N1CC2(CC2)C[C@H]1C(=O)N[C@@H](C[C@@H]1CCNC1=O)C(=O)COC(F)(F)F [Compound 732, (S)-N-((S)-3-oxo-1-((S)-2-oxopyrrolidin-3-yl)-4-(trifluoromethoxy)butan-2-yl)-5-(pentanoyl-d9)-5-azaspiro[2.4]heptane-6-carboxamide]
  EC50: < 0.05 µM

## [2H]C([2H])([2H])C([2H])([2H])C([2H])([2H])C([2H])([2H])C([2H])([2H])C(=O)N1CC2(CC2)C[C@H]1C(=O)N[C@@H](C[C@@H]1CCNC1=O)C(=O)COC(F)(F)F [Compound 733, (S)-5-(hexanoyl-d 11)-N-((S)-3-oxo-1-((S)-2-oxopyrrolidin-3-yl)-4-(trifluoromethoxy)butan-2-yl)-5-azaspiro[2.4]heptane-6-carboxamide]
  EC50: < 0.05 µM

## [2H]C([2H])([2H])C([2H])(C([2H])([2H])[2H])C([2H])([2H])C([2H])([2H])C(=O)N1CC2(CC2)C[C@H]1C(=O)N[C@@H](C[C@@H]1CCNC1=O)C(=O)COC(F)(F)F [Compound 734, (S)-5-(4-(methyl-d3)pentanoyl-2,2,3,3,4,5,5,5-d8)-N-((S)-3-oxo-1-((S)-2-oxopyrrolidin-3-yl)-4-(trifluoromethoxy)butan-2-yl)-5-azaspiro[2.4]heptane-6-carboxamide]
  EC50: < 0.05 µM

## CC(C)(F)C(=O)N1CC2(CC2)C[C@H]1C(=O)N[C@@H](C[C@@H]1CCNC1=O)C(=O)COC(F)(F)F [Compound 735, (S)-5-(2-fluoro-2-methylpropanoyl)-N-((S)-3-oxo-1-((S)-2-oxopyrrolidin-3-yl)-4-(trifluoromethoxy)butan-2-yl)-5-azaspiro[2.4]heptane-6-carboxamide]
  EC50: < 0.05 µM

## [2H]C([2H])([2H])C([2H])([2H])C([2H])([2H])C(=O)N1CC2(CC2)C[C@H]1C(=O)N[C@@H](C[C@@H]1CCNC1=O)C(=O)COC(F)(F)F [Compound 736, (S)-5-(butanoyl-d7)-N-((S)-3-oxo-1-((S)-2-oxopyrrolidin-3-yl)-4-(trifluoromethoxy)butan-2-yl)-5-azaspiro[2.4]heptane-6-carboxamide]
  EC50: < 0.05 µM

## [2H]C([2H])([2H])C([2H])(C([2H])([2H])[2H])C([2H])([2H])C(=O)N1CC2(CC2)C[C@H]1C(=O)N[C@@H](C[C@@H]1CCNC1=O)C(=O)COC(F)(F)F [Compound 737, (S)-5-(3-(methyl-d3)butanoyl-2,2,3,4,4,4-d6)-N-((S)-3-oxo-1-((S)-2-oxopyrrolidin-3-yl)-4-(trifluoromethoxy)butan-2-yl)-5-azaspiro[2.4]heptane-6-carboxamide]
  EC50: < 0.05 µM

## [2H]C(C)(C)C(=O)N1CC2(CC2)C[C@H]1C(=O)N[C@@H](C[C@@H]1CCNC1=O)C(=O)COC(F)(F)F [Compound 738, (S)-5-(2-methylpropanoyl-2-d)-N-((S)-3-oxo-1-((S)-2-oxopyrrolidin-3-yl)-4-(trifluoromethoxy)butan-2-yl)-5-azaspiro[2.4]heptane-6-carboxamide]
  EC50: 0.05 to 0.2 µM
